# Data taken from patent publication US8022091B2, “Triazole derivative” (Taisho Pharmaceutical Co., Ltd., priority 2006, dated 2011).
# Target: T1, human Edg-1 (S1P1) (Homo sapiens, UniProt P21453)
# T1 construct: expressed in transfected cells; host or cells: HEK-293
# Assay: S1P1 binding assay: inhibition of [33P]-S1P binding to membrane fraction of HEK-293 cells transferred with the human Edg-1 (S1P1) gene
# Conditions: test compound 10 μM; inhibition of [33P]-S1P binding, membrane fraction
# Summary of the method: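 Membranes from S1P1-transfected HEK-293 cells incubated 1 h at 30° C in pH 7.4 Tris buffer with fatty acid-free BSA, 0.1 nM [33P]-S1P and test compound (0.1% DMSO). Filter-bound radioactivity was counted; inhibition corrected for binding to untransfected-cell membranes, and IC50 derived from concentration series.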
# T1 sequence (P21453 whole entry): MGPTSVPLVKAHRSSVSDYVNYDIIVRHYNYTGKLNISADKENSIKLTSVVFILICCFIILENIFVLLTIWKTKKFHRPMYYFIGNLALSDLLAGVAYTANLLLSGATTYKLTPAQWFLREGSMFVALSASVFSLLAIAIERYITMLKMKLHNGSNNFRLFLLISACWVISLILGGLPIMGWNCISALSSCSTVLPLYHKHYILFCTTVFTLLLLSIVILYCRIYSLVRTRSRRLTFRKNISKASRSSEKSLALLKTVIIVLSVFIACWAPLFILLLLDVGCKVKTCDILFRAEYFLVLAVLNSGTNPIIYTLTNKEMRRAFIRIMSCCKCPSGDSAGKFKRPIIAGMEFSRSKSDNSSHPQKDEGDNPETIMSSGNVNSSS
row,Structure (SMILES),inhibition at 10 µM
1,CCn1c(Oc2ccc3cc[nH]c3c2)nnc1[C@@H](C)NS(=O)(=O)c1ccc(C#N)cc1 [Compound 395],79.1%
2,CCn1c(Oc2ccc3cc[nH]c3c2)nnc1[C@@H](C)NS(=O)(=O)c1ccc(Cl)cc1Cl [Compound 398],84.7%
3,CCn1c(Oc2ccc3cc[nH]c3c2)nnc1[C@@H](C)NS(=O)(=O)c1cc(OC)ccc1OC [Compound 400],75.3%
4,CCn1c(Oc2ccc3cc[nH]c3c2)nnc1[C@@H](C)NS(=O)(=O)c1cccc(Cl)c1 [Compound 403],72.5%
5,CCn1c(Oc2ccc3cc[nH]c3c2)nnc1[C@@H](C)NS(=O)(=O)c1ccc(C(C)C)cc1 [Compound 404],60.2%
6,CCn1c(Oc2ccc3cc[nH]c3c2)nnc1[C@@H](C)NS(=O)(=O)c1cc(F)cc(Cl)c1C [Compound 405],61.4%
7,CCc1cc(Br)ccc1S(=O)(=O)N[C@H](C)c1nnc(Oc2ccc3cc[nH]c3c2)n1CC [Compound 406],56.3%
8,CCn1c(Oc2ccc3cc[nH]c3c2)nnc1[C@@H](C)NS(=O)(=O)c1ccc(Br)cc1C [Compound 407],68.2%
9,CCn1c(Oc2ccc3cc[nH]c3c2)nnc1[C@@H](C)NS(=O)(=O)c1ccc(F)c(F)c1F [Compound 409],74.7%
10,CCn1c(Oc2ccc3cc[nH]c3c2)nnc1[C@@H](C)NS(=O)(=O)c1cc(F)c(F)cc1Cl [Compound 412],82.5%
11,CCn1c(Oc2ccc3cc[nH]c3c2)nnc1[C@@H](C)NS(=O)(=O)c1ccc(F)c(F)c1 [Compound 413],95.3%
12,CCn1c(Oc2ccc3cc[nH]c3c2)nnc1[C@@H](C)NS(=O)(=O)c1ccc(Br)cc1F [Compound 414],92.5%
13,CCn1c(Oc2ccc3cc[nH]c3c2)nnc1[C@@H](C)NS(=O)(=O)c1cc(F)c(Cl)cc1F [Compound 415],91.5%
14,CCn1c(Oc2ccc3cc[nH]c3c2)nnc1[C@@H](C)NS(=O)(=O)c1cc(Br)c(F)cc1F [Compound 416],83.2%
15,CCn1c(Oc2ccc3cc[nH]c3c2)nnc1[C@@H](C)NS(=O)(=O)c1cc(Cl)c(F)cc1F [Compound 417],90.8%
16,CCn1c(Oc2ccc3cc[nH]c3c2)nnc1[C@@H](C)NS(=O)(=O)c1c(F)c(Br)cc(F)c1Br [Compound 420],61%
17,CCn1c(Oc2ccc3cc[nH]c3c2)nnc1[C@@H](C)NS(=O)(=O)c1cc(C(F)(F)F)ccc1Cl [Compound 422],83.1%
18,CCn1c(Oc2ccc3cc[nH]c3c2)nnc1[C@@H](C)NS(=O)(=O)c1cccc(F)c1 [Compound 423],87.8%
19,CCn1c(Oc2ccc3cc[nH]c3c2)nnc1[C@@H](C)NS(=O)(=O)c1cc(Cl)ccc1OC [Compound 425],90.1%
20,CCn1c(Oc2ccc3cc[nH]c3c2)nnc1[C@@H](C)NS(=O)(=O)c1c(C)cc(Cl)cc1Cl [Compound 426],92.3%
21,CCn1c(Oc2ccc3cc[nH]c3c2)nnc1[C@@H](C)NS(=O)(=O)c1cc(F)c(F)cc1F [Compound 427],86.5%
22,CCn1c(Oc2ccc3cc[nH]c3c2)nnc1[C@@H](C)NS(=O)(=O)c1cc(Br)ccc1Br [Compound 428],81.4%
23,CCn1c(Oc2ccc3cc[nH]c3c2)nnc1[C@@H](C)NS(=O)(=O)c1ccc(-c2ccno2)s1 [Compound 429],71.1%

# More lines, now with the values ahead:
row,inhibition at 10 µM,Structure (SMILES)
1,50%,CCn1c(Oc2ccc3cc[nH]c3c2)nnc1[C@@H](C)NS(=O)(=O)Cc1cccc(Cl)c1 [Compound 430]
2,80.5%,CCn1c(Oc2ccc3cc[nH]c3c2)nnc1[C@@H](C)NS(=O)(=O)c1ccc(Br)cc1Br [Compound 431]
3,84.2%,CCn1c(Oc2ccc3cc[nH]c3c2)nnc1[C@@H](C)NS(=O)(=O)c1ccc(F)c(C#N)c1 [Compound 432]
4,93.8%,CCn1c(Oc2ccc3cc[nH]c3c2)nnc1[C@@H](C)NS(=O)(=O)c1cc(C)cc(C)c1 [Compound 433]
5,79.5%,CCn1c(Oc2ccc3cc[nH]c3c2)nnc1[C@@H](C)NS(=O)(=O)c1ccc(OC(F)F)cc1 [Compound 434]
6,94.6%,CCn1c(Oc2ccc3cc[nH]c3c2)nnc1[C@@H](C)NS(=O)(=O)c1cccc(OC(F)F)c1 [Compound 435]
7,67.5%,CCn1c(Oc2ccc3cc[nH]c3c2)nnc1[C@@H](C)NS(=O)(=O)c1c(F)cc(F)cc1Br [Compound 436]
8,97.3%,CCn1c(Oc2ccc3cc[nH]c3c2)nnc1[C@@H](C)NS(=O)(=O)c1cc(F)cc(F)c1 [Compound 437]
9,71.6%,CCn1c(Oc2ccc3cc[nH]c3c2)nnc1[C@@H](C)NS(=O)(=O)c1ccc(Cl)cc1F [Compound 438]
10,98.1%,CCn1c(Oc2ccc3cc[nH]c3c2)nnc1[C@@H](C)NS(=O)(=O)c1cc(F)c(F)c(F)c1 [Compound 439]
11,88.4%,CCn1c(Oc2ccc3cc[nH]c3c2)nnc1[C@@H](C)NS(=O)(=O)c1ccc(Br)c(C)c1 [Compound 440]
12,63%,CCn1c(Oc2ccc3cc[nH]c3c2)nnc1[C@@H](C)NS(=O)(=O)c1ccc(F)cc1Br [Compound 441]
13,70.1%,CCn1c(Oc2ccc3cc[nH]c3c2)nnc1[C@@H](C)NS(=O)(=O)c1ccc(C(F)(F)F)cc1Br [Compound 442]
14,55.7%,CCn1c(Oc2ccc3cc[nH]c3c2)nnc1[C@@H](C)NS(=O)(=O)c1cc(C(F)(F)F)ccc1Br [Compound 443]
15,100%,CCn1c(Oc2ccc3cc[nH]c3c2)nnc1[C@@H](C)NS(=O)(=O)c1ccc(C)c(F)c1 [Compound 444]
16,55.6%,CCn1c(Oc2ccc3cc[nH]c3c2)nnc1[C@@H](C)NS(=O)(=O)c1ccc(F)cc1C [Compound 445]
17,75.8%,CCn1c(Oc2ccc3cc[nH]c3c2)nnc1[C@@H](C)NS(=O)(=O)c1cc(Cl)ccc1F [Compound 446]
18,95.5%,CCn1c(Oc2ccc3cc[nH]c3c2)nnc1[C@@H](C)NS(=O)(=O)c1ccc(Br)c(F)c1 [Compound 447]
19,81.1%,CCn1c(Oc2ccc3cc[nH]c3c2)nnc1[C@@H](C)NS(=O)(=O)c1ccc(Br)cc1Cl [Compound 448]
20,76.8%,CCn1c(Oc2ccc3cc[nH]c3c2)nnc1[C@@H](C)NS(=O)(=O)c1cc(C)ccc1F [Compound 451]

row,inhibition at 10 µM,Structure (SMILES)
1,68.9%,CCn1c(Oc2ccc3cc[nH]c3c2)nnc1[C@@H](C)NS(=O)(=O)c1cccc(Cl)c1F [Compound 452]
2,83.8%,CCn1c(Oc2ccc3cc[nH]c3c2)nnc1[C@@H](C)NS(=O)(=O)CC1CCCCC1 [Compound 458]
3,53.2%,CCn1c(Oc2ccc3cc[nH]c3c2)nnc1[C@@H](C)NS(=O)(=O)c1cc(C)oc1C(F)(F)F [Compound 460]
4,99.7%,CCn1c(Oc2ccc3cc[nH]c3c2)nnc1[C@@H](C)NS(=O)(=O)c1ccc2c(c1)OCCO2 [Compound 461]
5,87.9%,CCn1c(Oc2ccc3cc[nH]c3c2)nnc1[C@@H](C)NS(=O)(=O)c1ccc2nsnc2c1 [Compound 464]
6,51.1%,CCn1c(Oc2ccc3cc[nH]c3c2)nnc1[C@@H](C)NS(=O)(=O)c1ccsc1 [Compound 466]
7,59.9%,CCn1c(Oc2ccc3cc[nH]c3c2)nnc1[C@@H](C)NS(=O)(=O)c1ccc(-c2cnco2)s1 [Compound 467]
8,56.2%,CCn1c(Oc2ccc3cc[nH]c3c2)nnc1[C@@H](C)NS(=O)(=O)c1cnn(-c2ccccc2)c1C [Compound 468]
9,55.3%,CCn1c(Oc2ccc3cc[nH]c3c2)nnc1[C@@H](C)NS(=O)(=O)c1cc(C)sc1C [Compound 472]
10,74.5%,CCn1c(Oc2ccc3cc[nH]c3c2)nnc1[C@@H](C)NS(=O)(=O)c1ccc(OC)cc1OC [Compound 473]
11,51.8%,CCn1c(Oc2ccc3cc[nH]c3c2)nnc1[C@@H](C)NS(=O)(=O)c1ccc(C(F)(F)F)cc1Cl [Compound 475]
12,58.1%,CCn1c(Oc2ccc3cc[nH]c3c2)nnc1[C@@H](C)NS(=O)(=O)c1cccc(C(C)=O)c1 [Compound 477]
13,87%,CCn1c(Oc2ccc3cc[nH]c3c2)nnc1[C@@H](C)CS(=O)(=O)c1ccc(F)c2ccccc12 [Compound 478]
14,87.4%,CCc1ccc(OC)c(S(=O)(=O)N[C@H](C)c2nnc(Oc3ccc4cc[nH]c4c3)n2CC)c1 [Compound 482]
15,65.3%,CCn1c(Oc2ccc3cc[nH]c3c2)nnc1[C@@H](C)NS(=O)(=O)c1ccc(Cl)c(S(N)(=O)=O)c1 [Compound 484]
16,62.5%,CCn1c(Oc2ccc3cc[nH]c3c2)nnc1[C@@H](C)NS(=O)(=O)c1ccc(Br)c(C(F)(F)F)c1 [Compound 488]
17,83.1%,CCn1c(Oc2ccc3cc[nH]c3c2)nnc1[C@@H](C)NS(=O)(=O)c1cc2ccccc2s1 [Compound 493]
18,66%,CCn1c(Oc2ccc3cc[nH]c3c2)nnc1[C@@H](C)NS(=O)(=O)c1csc2ccccc12 [Compound 494]
19,104%,CCn1c(Oc2cccc(N3CCN(C)CC3)c2)nnc1[C@@H](C)NS(=O)(=O)c1ccc(C(C)=O)cc1 [Compound 497]

# Same assay, conditions: test compound at 10 μM; inhibition of [33P]-S1P binding to the membrane fraction of HEK-293 cells expressing human Edg-1 (S1P1)
row,inhibition at 10 µM,Structure (SMILES)
1,88%,CCn1c(Oc2ccc3cc[nH]c3c2)nnc1[C@@H](C)NS(=O)(=O)c1cc(Br)ccc1OC [Compound 389]
2,65.9%,CCn1c(Oc2ccc3cc[nH]c3c2)nnc1[C@@H](C)NS(=O)(=O)c1cc(F)ccc1C [Compound 390]
3,80.4%,CCn1c(Oc2ccc3cc[nH]c3c2)nnc1[C@@H](C)NS(=O)(=O)c1c(C)c(C)c(C)c(C)c1C [Compound 391]
4,73.6%,CCn1c(Oc2ccc3cc[nH]c3c2)nnc1[C@@H](C)NS(=O)(=O)c1ccc(Br)c(Br)c1 [Compound 392]
5,79.7%,CCn1c(Oc2ccc3cc[nH]c3c2)nnc1[C@@H](C)NS(=O)(=O)c1cc(C)ccc1OC [Compound 393]
